{"source": "PubChem BioAssay (NCI)", "assay_in_all_cases": "NCI tumour cell line growth inhibition, 48 h", "key": {"786-0 renal": {"system": "786-0 renal"}, "A498 renal": {"system": "A498 renal"}, "A549 NSCLC": {"system": "A549 NSCLC"}, "ACHN renal": {"system": "ACHN renal"}, "BT-549 breast": {"system": "BT-549 breast"}, "CAKI-1 renal": {"system": "CAKI-1 renal"}, "CCRF-CEM leukemia": {"system": "CCRF-CEM leukemia"}, "COLO 205 colon": {"system": "COLO 205 colon"}, "DU-145 prostate": {"system": "DU-145 prostate"}, "EKVX NSCLC": {"system": "EKVX NSCLC"}, "HCC-2998 colon": {"system": "HCC-2998 colon"}, "HCT-116 colon": {"system": "HCT-116 colon"}, "HCT-15 colon": {"system": "HCT-15 colon"}, "HL-60(TB) leukemia": {"system": "HL-60(TB) leukemia"}, "HOP-62 NSCLC": {"system": "HOP-62 NSCLC"}, "HOP-92 NSCLC": {"system": "HOP-92 NSCLC"}, "HS 578T breast": {"system": "HS 578T breast"}, "HT29 colon": {"system": "HT29 colon"}, "IGROV1 ovarian": {"system": "IGROV1 ovarian"}, "K-562 leukemia": {"system": "K-562 leukemia"}, "KM12 colon": {"system": "KM12 colon"}, "LOX IMVI melanoma": {"system": "LOX IMVI melanoma"}, "M14 melanoma": {"system": "M14 melanoma"}, "MALME-3M melanoma": {"system": "MALME-3M melanoma"}, "MCF7 breast": {"system": "MCF7 breast"}, "MDA-MB-231 breast": {"system": "MDA-MB-231 breast"}, "MDA-MB-435": {"system": "MDA-MB-435"}, "MOLT-4 leukemia": {"system": "MOLT-4 leukemia"}, "NCI-H226 lung": {"system": "NCI-H226 lung"}}, "note": "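Briefly, cells in 96-well plates were exposed to five compound concentrations for 48 h, and endpoints were estimated by linear interpolation. GI50 is the concentration that inhibits growth by half. Definition used: TGI = concentration required for complete inhibition of growth.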"}
{"molecule": "O=C(CCCCCCNC(=O)C(O)(O)C(F)(F)F)Nc1ncc(-c2ccc(Br)cc2)s1", "values": [{"measurement": "GI50", "setting": "786-0 renal", "result": 1000, "unit": "nM"}, {"measurement": "TGI", "setting": "786-0 renal", "result": "> 31800", "unit": "nM"}, {"measurement": "GI50", "setting": "A498 renal", "result": 130, "unit": "nM"}, {"measurement": "TGI", "setting": "A498 renal", "result": 1650, "unit": "nM"}, {"measurement": "GI50", "setting": "A549 NSCLC", "result": 1600, "unit": "nM"}, {"measurement": "TGI", "setting": "A549 NSCLC", "result": "> 31800", "unit": "nM"}, {"measurement": "GI50", "setting": "ACHN renal", "result": 908, "unit": "nM"}, {"measurement": "TGI", "setting": "ACHN renal", "result": 4830, "unit": "nM"}, {"measurement": "GI50", "setting": "BT-549 breast", "result": 851, "unit": "nM"}, {"measurement": "TGI", "setting": "BT-549 breast", "result": "> 31800", "unit": "nM"}, {"measurement": "GI50", "setting": "CAKI-1 renal", "result": 1220, "unit": "nM"}, {"measurement": "TGI", "setting": "CAKI-1 renal", "result": 16800, "unit": "nM"}, {"measurement": "GI50", "setting": "CCRF-CEM leukemia", "result": 1190, "unit": "nM"}, {"measurement": "TGI", "setting": "CCRF-CEM leukemia", "result": "> 31800", "unit": "nM"}, {"measurement": "GI50", "setting": "COLO 205 colon", "result": 826, "unit": "nM"}, {"measurement": "TGI", "setting": "COLO 205 colon", "result": 2260, "unit": "nM"}, {"measurement": "GI50", "setting": "DU-145 prostate", "result": 1110, "unit": "nM"}, {"measurement": "TGI", "setting": "DU-145 prostate", "result": 6410, "unit": "nM"}, {"measurement": "GI50", "setting": "EKVX NSCLC", "result": 1330, "unit": "nM"}, {"measurement": "TGI", "setting": "EKVX NSCLC", "result": "> 31800", "unit": "nM"}, {"measurement": "GI50", "setting": "HCC-2998 colon", "result": 1360, "unit": "nM"}, {"measurement": "TGI", "setting": "HCC-2998 colon", "result": 4820, "unit": "nM"}, {"measurement": "GI50", "setting": "HCT-116 colon", "result": 273, "unit": "nM"}, {"measurement": "TGI", "setting": "HCT-116 colon", "result": 6730, "unit": "nM"}, {"measurement": "GI50", "setting": "HCT-15 colon", "result": 1430, "unit": "nM"}, {"measurement": "TGI", "setting": "HCT-15 colon", "result": 6280, "unit": "nM"}, {"measurement": "GI50", "setting": "HL-60(TB) leukemia", "result": 1620, "unit": "nM"}, {"measurement": "TGI", "setting": "HL-60(TB) leukemia", "result": "> 31800", "unit": "nM"}, {"measurement": "GI50", "setting": "HOP-62 NSCLC", "result": 1230, "unit": "nM"}, {"measurement": "TGI", "setting": "HOP-62 NSCLC", "result": 9100, "unit": "nM"}, {"measurement": "GI50", "setting": "HOP-92 NSCLC", "result": 199, "unit": "nM"}, {"measurement": "TGI", "setting": "HOP-92 NSCLC", "result": 1510, "unit": "nM"}, {"measurement": "GI50", "setting": "HS 578T breast", "result": 1040, "unit": "nM"}, {"measurement": "TGI", "setting": "HS 578T breast", "result": "> 31800", "unit": "nM"}, {"measurement": "GI50", "setting": "HT29 colon", "result": 735, "unit": "nM"}, {"measurement": "TGI", "setting": "HT29 colon", "result": "> 31800", "unit": "nM"}, {"measurement": "GI50", "setting": "IGROV1 ovarian", "result": 846, "unit": "nM"}, {"measurement": "TGI", "setting": "IGROV1 ovarian", "result": 4510, "unit": "nM"}, {"measurement": "GI50", "setting": "K-562 leukemia", "result": 442, "unit": "nM"}, {"measurement": "TGI", "setting": "K-562 leukemia", "result": "> 31800", "unit": "nM"}, {"measurement": "GI50", "setting": "KM12 colon", "result": 1250, "unit": "nM"}, {"measurement": "TGI", "setting": "KM12 colon", "result": 6660, "unit": "nM"}, {"measurement": "GI50", "setting": "LOX IMVI melanoma", "result": 564, "unit": "nM"}, {"measurement": "TGI", "setting": "LOX IMVI melanoma", "result": 1360, "unit": "nM"}, {"measurement": "GI50", "setting": "M14 melanoma", "result": 1470, "unit": "nM"}, {"measurement": "TGI", "setting": "M14 melanoma", "result": "> 31800", "unit": "nM"}, {"measurement": "GI50", "setting": "MALME-3M melanoma", "result": 913, "unit": "nM"}, {"measurement": "TGI", "setting": "MALME-3M melanoma", "result": "> 31800", "unit": "nM"}, {"measurement": "GI50", "setting": "MCF7 breast", "result": 1300, "unit": "nM"}, {"measurement": "TGI", "setting": "MCF7 breast", "result": "> 31800", "unit": "nM"}, {"measurement": "GI50", "setting": "MDA-MB-231 breast", "result": 607, "unit": "nM"}, {"measurement": "TGI", "setting": "MDA-MB-231 breast", "result": 2000, "unit": "nM"}, {"measurement": "GI50", "setting": "MDA-MB-435", "result": 1040, "unit": "nM"}, {"measurement": "TGI", "setting": "MDA-MB-435", "result": "> 31800", "unit": "nM"}, {"measurement": "GI50", "setting": "MOLT-4 leukemia", "result": 831, "unit": "nM"}, {"measurement": "TGI", "setting": "MOLT-4 leukemia", "result": "> 31800", "unit": "nM"}, {"measurement": "GI50", "setting": "NCI-H226 lung", "result": 2400, "unit": "nM"}]}
